The values below come from paper PMC4887402 (Journal of inorganic biochemistry, 2015).

The assay concerns the target Cytochrome P450 CYP3A4 (Homo sapiens, UniProt P08684). As to the kind of experiment: UV-VIS spectral titration. The format is binding.

Cytochrome P450 CYP3A4, sequence (P08684 whole entry): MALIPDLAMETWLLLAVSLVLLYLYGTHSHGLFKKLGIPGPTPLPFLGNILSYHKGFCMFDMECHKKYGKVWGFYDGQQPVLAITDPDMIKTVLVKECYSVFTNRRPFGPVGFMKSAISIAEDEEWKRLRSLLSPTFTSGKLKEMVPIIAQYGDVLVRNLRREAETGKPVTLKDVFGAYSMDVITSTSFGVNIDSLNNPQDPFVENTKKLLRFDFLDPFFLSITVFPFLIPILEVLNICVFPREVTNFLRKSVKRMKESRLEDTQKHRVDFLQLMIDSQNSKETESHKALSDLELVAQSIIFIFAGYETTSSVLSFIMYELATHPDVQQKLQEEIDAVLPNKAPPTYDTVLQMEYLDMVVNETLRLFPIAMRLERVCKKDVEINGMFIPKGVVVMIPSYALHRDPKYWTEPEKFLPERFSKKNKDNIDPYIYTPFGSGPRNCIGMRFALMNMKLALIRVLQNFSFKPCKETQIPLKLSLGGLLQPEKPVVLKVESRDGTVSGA

For orientation: Kd means the free concentration of one partner at which half of the binding sites on the other are occupied at equilibrium, for simple one-to-one binding. Read a high Kd as lower affinity. Turning to `C[C@]12CC[C@H]3[C@@H]([C@H](C/C=C/C[C@@H]4CC5=CC(=O)CC[C@]5(C)[C@H]5CC[C@]6(C)[C@@H](O)CC[C@H]6[C@H]45)CC4=CC(=O)CC[C@@]43C)[C@@H]1CC[C@@H]2O` [trans-TST2], binding was characterised by a dissociation constant (Kd) of 8 µM. Regarding `C[C@]12CC[C@H]3[C@@H]([C@H](C/C=C\C[C@@H]4CC5=CC(=O)CC[C@]5(C)[C@H]5CC[C@]6(C)[C@@H](O)CC[C@H]6[C@H]45)CC4=CC(=O)CC[C@@]43C)[C@@H]1CC[C@@H]2O` [cis-TST2], the Kd amounted to 0.3 µM.
